From publication PMC7026641, “Identification of the 3-amino-3-carboxypropyl (acp) transferase enzyme responsible for acp^3U formation at position 47 in Escherichia coli tRNAs” (Nucleic Acids Research, 2019)

Assays:
[1] = target: T1, YfiP (TuaA, tRNA U47 acp transferase A) (Escherichia coli, UniProt Q47319); assay: ITC, […]°C, one-site binding model
T1 construct: gene tapT; E. coli YfiP with a C-terminal 6xHis-tag
T1 sequence (Q47319 1-232): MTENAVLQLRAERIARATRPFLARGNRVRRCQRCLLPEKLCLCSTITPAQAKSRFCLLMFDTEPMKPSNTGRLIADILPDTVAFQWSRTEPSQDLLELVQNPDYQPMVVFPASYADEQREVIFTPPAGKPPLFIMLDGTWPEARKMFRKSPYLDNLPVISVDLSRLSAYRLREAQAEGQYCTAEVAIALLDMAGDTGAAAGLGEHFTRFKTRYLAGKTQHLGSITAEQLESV

[2] = target: T1, YfiP (TuaA, tRNA U47 acp transferase A); assay: ITC, […]°C, one-site binding model; also in vitro acp transfer to tRNA

Compound | Kd [1] | Kd [2]
CSC[C@H]1O[C@@H](n2cnc3c(N)ncnc32)[C@H](O)[C@@H]1O [5-MTA, 5′-methyl 5′-deoxythioadenosine] | 131 µM | 
Nc1ncnc2c1ncn2[C@@H]1O[C@H](CSCC[C@H](N)C(=O)O)[C@@H](O)[C@H]1O [SAH, S-adenosylhomocysteine] | 84 µM | 
C[S+](CC[C@H](N)C(=O)O)C[C@H]1O[C@@H](n2cnc3c(N)ncnc32)[C@H](O)[C@@H]1O (stereo partly drawn) [SAM, S-adenosyl methionine] |  | 32 µM
